In patent US8901038B2, “Biphenyl-substituted cyclic ketoenols” (Bayer CropScience AG, priority 2010, dated 2014):

Columns and labels:
Type in all cases: in vivo
[1] = system: green peach aphid (Myzus persicae); test: Myzus test (MYZUPE spray treatment); details: Chinese cabbage leaf discs sprayed, after 6 days
Protocol: Myzus Test (MYZUPE Spray Treatment)
• Solvents: 78 parts by weight of acetone • 1.5 parts by weight of dimethylformamide • Emulsifier: 0.5 part by weight of alkylaryl polyglycol ether
To produce a suitable preparation of active compound, 1 part by weight of active compound is mixed with the stated amounts of solvent and emulsifier, and the concentrate is diluted with emulsifier-containing water to the desired concentration. Discs of Chinese cabbage (Brassica pekinensis) which are infested by all stages of the green peach aphid (Myzus persicae) are sprayed with an active compound preparation of the desired concentration. After 6 days, the effect in % is determined. 100% means that all aphids have been killed; 0% means that none of the aphids have been killed.

[2] = system: greenhouse red spider mite (Tetranychus urticae); test: Tetranychus test; OP-resistant (TETRUR spray treatment); details: application rate 100 g/ha; bean leaf discs sprayed; after 6 days
Protocol: Tetranychus Test; OP-Resistant (TETRUR Spray Treatment)
(§1) • Solvents: 78.0 parts by weight of acetone • 1.5 parts by weight of dimethylformamide • Emulsifier: 0.5 part by weight of alkylaryl polyglycol ether
To produce a suitable preparation of active compound, 1 part by weight of active compound is mixed with the stated amounts of solvent and emulsifier, and the concentrate is diluted with emulsifier-containing water to the desired concentration. Discs of bean leaves (Phaseolus vulgaris), which are infested by all stages of the greenhouse red spider mite (Tetranychus urticae) are sprayed with an active compound preparation of the desired concentration.
After 6 days, the effect in % is determined. 100% means that all spider mites have been killed; 0% means that none of the spider mites have been killed.

[3] = system: larvae of the mustard beetle (Phaedon cochleariae); test: Phaedon test (PHAECO spray treatment); details: application rate 500 g/ha; Chinese cabbage leaf discs sprayed; after 7 days
Protocol: Phaedon Test (PHAECO Spray Treatment)
as §1
To produce a suitable preparation of active compound, one part by weight of active compound is mixed with the stated amounts of solvents and emulsifier, and the concentrate is diluted with emulsifier-containing water to the desired concentration. […].
After 7 days, the effect in % is determined. 100% means that all beetle larvae have been killed; 0% means that none of the beetle larvae have been killed.

Boophilus microplus = Boophilus microplus test (BOOPMI injection); details: application rate 20 μg/animal; injection into the abdomen; after 7 days
Protocol: Boophilus microplus Test (BOOPMI Injection)
(§2) • Solvent: Dimethyl sulphoxide
To produce a suitable preparation of active compound, 10 mg of active compound are mixed with 0.5 ml of solvent and the concentrate is diluted with solvent to the desired concentration. The solution of active compound is injected into the abdomen (Boophilus microplus) and the animals are transferred into dishes and stored in a climatized room. The efficacy is monitored for deposition of fertile eggs.
After 7 days, the effect in % is determined. 100% means that none of the ticks has laid any fertile eggs.

Lucilia cuprina larvae = test: Lucilia cuprina test (LUCICU); details: application rate 100 ppm; treated horse meat; after 2 days
Protocol: Lucilia cuprina test (LUCICU)
as §2
To produce a suitable preparation of active compound, 10 mg of active compound are mixed with 0.5 ml of dimethyl sulphoxide and the concentrate is diluted with water to the desired concentration. Containers containing horse meat treated with the active compound preparation of the desired concentration are populated with about 20 Lucilia cuprina larvae.
After 2 days, the kill in % is determined. 100% means that all larvae have been killed; 0% means that none of the larvae have been killed.

[4] = system: caterpillars of the armyworm (Spodoptera frugiperda); test: Spodoptera frugiperda test (SPODFR spray treatment); details: application rate 500 g/ha; maize leaf discs sprayed; after 7 days
Protocol: Spodoptera frugiperda Test (SPODFR Spray Treatment)
as §1
To produce a suitable preparation of active compound, 1 part by weight of active compound is mixed with the stated amounts of solvent and emulsifier, and the concentrate is diluted with emulsified water to the desired concentration. Discs of maize leaves (Zea mays) are sprayed with an active compound preparation of the desired concentration and, after drying, populated with caterpillars of the armyworm (Spodoptera frugiperda).
After 7 days, the effect in % is determined. 100% means that all caterpillars have been killed; 0% means that none of the caterpillars have been killed.

| Structure (SMILES) | efficacy (aphids killed) ([1]; application rate 500 g/ha) [%] | efficacy (spider mites killed) [2] [%] | efficacy (beetle larvae killed) [3] [%] | efficacy (deposition of fertile eggs) (Boophilus microplus) [%] | efficacy (kill of larvae) (Lucilia cuprina larvae) [%] | efficacy (caterpillars killed) [4] [%] | efficacy (aphids killed) ([1]; application rate 100 g/ha) [%] |
| --- | --- | --- | --- | --- | --- | --- | --- |
| CCOC(=O)OC1=C(c2c(CC)ccc(-c3ccc(F)cc3)c2C)C(=O)NC12CCC(OC)CC2 (single isomer, unassigned) [Example I-1-c-3] | 100 | 90 |  |  |  |  |  |
| CCc1ccc(-c2ccc(Cl)cc2)c(C)c1C1=C(O)C2(CCC(OC)CC2)OC1=O (single isomer, unassigned) [Example I-2-a-5] | 90 |  | 100 |  |  |  |  |
| CCc1ccc(-c2ccc(Cl)cc2)c(C)c1C1=C(O)C2(CCC(OC)CC2)OC1=O (single isomer, unassigned) [Example I-2-a-6] | 100 | 100 | 100 |  |  |  |  |
| CCc1ccc(-c2ccc(Cl)cc2)c(CC)c1C1=C(O)C2(CCOCC2)NC1=O [Example I-1-a-1] | 100 | 80 | 100 |  |  |  |  |
| O=C1NC2(CCOCC2)C(O)=C1c1c(Cl)ccc(-c2ccc(Cl)cc2)c1Cl [Example I-1-a-2] | 100 |  |  | 95 | 100 | 100 |  |
| CCc1ccc(-c2ccc(Cl)cc2)c(C)c1C1=C(O)C2(CCOCC2)NC1=O [Example I-1-a-3] | 100 | 90 | 100 | 80 |  | 80 |  |
| CCc1ccc(-c2ccc(F)cc2)c(C)c1C1=C(O)C2(CCC(OC)CC2)NC1=O (stereo not drawn) [Example I-1-a-4] | 90 | 100 | 83 |  |  |  |  |
| CCc1ccc(-c2ccc(F)cc2)c(C)c1C1=C(O)C2(CCOCC2)NC1=O [Example I-1-a-5] | 100 | 90 |  |  |  |  |  |
| O=C1NC2(CCOCC2)C(O)=C1c1c(Cl)ccc(-c2ccc(F)cc2)c1Cl [Example I-1-a-6] | 100 | 100 |  | 90 |  |  |  |
| CCc1cc(C)c(-c2ccc(Cl)cc2)c(C)c1C1=C(O)C2(CCC(OC)CC2)NC1=O (stereo not drawn) [Example I-1-a-7] |  | 90 | 100 |  |  |  | 90 |
| CCc1cc(C)c(-c2ccc(Cl)cc2)c(C)c1C1=C(O)C2(CCOCC2)NC1=O [Example I-1-a-8] | 100 | 90 | 100 |  |  |  |  |
| CCc1c(-c2ccc(F)cc2)ccc(C)c1C1=C(O)C2(CCC(OC)CC2)NC1=O (stereo not drawn) [Example I-1-a-9] | 90 | 70 | 83 | 100 |  |  |  |
| CCc1c(-c2ccc(F)cc2)ccc(C)c1C1=C(O)C2(CCOCC2)NC1=O [Example I-1-a-10] | 100 | 100 |  | 80 | 90 |  |  |
| Cc1c(-c2ccc(F)cc2)ccc(Cl)c1C1=C(O)C2(CCOCC2)NC1=O [Example I-1-a-13] | 100 | 100 |  | 80 | 90 | 100 |  |
| Cc1c(-c2ccc(Cl)cc2)ccc(Cl)c1C1=C(O)C2(CCOCC2)NC1=O [Example I-1-a-15] | 100 | 90 |  |  | 100 | 83 |  |
| CCc1c(-c2ccc(Cl)cc2)ccc(C)c1C1=C(O)C2(CCC(OC)CC2)NC1=O (stereo not drawn) [Example I-1-a-16] | 100 | 90 |  |  |  | 100 |  |
| CCc1c(-c2ccc(Cl)cc2)ccc(C)c1C1=C(O)C2(CCOCC2)NC1=O [Example I-1-a-17] | 100 | 100 |  |  |  |  |  |

| Structure (SMILES) | efficacy (aphids killed) ([1]; application rate 500 g/ha) [%] | efficacy (spider mites killed) [2] [%] | efficacy (beetle larvae killed) [3] [%] | efficacy (deposition of fertile eggs) (Boophilus microplus) [%] | efficacy (kill of larvae) (Lucilia cuprina larvae) [%] | efficacy (caterpillars killed) [4] [%] | efficacy (aphids killed) ([1]; application rate 100 g/ha) [%] |
| --- | --- | --- | --- | --- | --- | --- | --- |
| CCc1ccc(-c2ccc(F)cc2)c(CC)c1C1=C(O)C2(CCC(OC)CC2)NC1=O (stereo not drawn) [Example I-1-a-18] | 100 | 100 |  |  |  |  |  |
| CCc1ccc(-c2ccc(Cl)cc2)c(CC)c1C1=C(O)C2(CCC(OC)CC2)NC1=O (stereo not drawn) [Example I-1-a-19] |  | 90 | 100 |  |  |  |  |
| CCc1ccc(-c2ccc(F)cc2)c(CC)c1C1=C(O)C2(CCOCC2)NC1=O [Example I-1-a-20] | 100 | 100 |  |  |  |  |  |
| CCc1ccc(-c2ccc(Cl)cc2)c(C)c1C1=C(O)C2(CCC(OC)CC2)NC1=O (stereo not drawn) [Example I-1-a-21] | 100 | 100 |  |  |  |  |  |
| CCON1CCC2(CC1)NC(=O)C(c1c(CC)ccc(-c3ccc(Cl)cc3)c1C)=C2O [Example I-1-a-22] | 100 | 90 | 100 |  |  |  |  |
| CCc1ccc(-c2ccc(Cl)cc2)c(C)c1C1=C(O)C2(CCN(OC)CC2)NC1=O [Example I-1-a-23] | 100 | 90 | 100 |  |  |  |  |
| CCc1ccc(-c2ccc(Cl)cc2)c(CC)c1C1=C(O)C2(CCN(OC)CC2)NC1=O [Example I-1-a-24] |  | 100 |  |  |  |  |  |
| CCc1ccc(-c2ccc(Cl)cc2)c(CC)c1C1=C(OC(=O)C(C)C)C2(CCOCC2)NC1=O [Example I-1-b-1] |  | 80 |  |  |  | 83 |  |
| CCc1c(-c2ccc(F)cc2)ccc(C)c1C1=C(OC(=O)C(C)C)C2(CCC(OC)CC2)NC1=O (stereo not drawn) [Example I-1-b-2] | 90 |  |  |  |  |  |  |
| CCc1ccc(-c2ccc(F)cc2)c(C)c1C1=C(OC(=O)C(C)C)C2(CCC(OC)CC2)NC1=O (stereo not drawn) [Example I-1-b-3] | 90 | 100 |  |  |  |  |  |
| CCc1ccc(-c2ccc(Cl)cc2)c(C)c1C1=C(OC(=O)C(C)C)C2(CCC(OC)CC2)NC1=O (stereo not drawn) [Example I-1-b-4] | 100 | 90 |  |  |  | 100 |  |
| CCOC(=O)OC1=C(c2c(CC)ccc(-c3ccc(Cl)cc3)c2CC)C(=O)NC12CCOCC2 [Example I-1-c-1] | 90 |  |  |  |  |  |  |
| CCOC(=O)OC1=C(c2c(CC)ccc(-c3ccc(Cl)cc3)c2C)C(=O)NC12CCC(OC)CC2 (stereo not drawn) [Example I-1-c-2] | 100 | 100 |  |  |  |  |  |
| CCc1ccc(-c2ccc(Cl)cc2)c(CC)c1C1=C(O)[C@]2(CC[C@H](OC)CC2)OC1=O [Example I-2-a-1] | 90 | 100 | 100 |  |  |  |  |
| CCc1ccc(-c2ccc(Cl)cc2)c(CC)c1C1=C(O)[C@]2(CC[C@@H](OC)CC2)OC1=O [Example I-2-a-2] | 90 |  |  |  |  |  |  |
| CCc1ccc(-c2ccc(Cl)cc2)c(CC)c1C1=C(O)C2(CCOCC2)OC1=O [Example I-2-a-3] | 90 | 100 |  |  |  |  |  |
| CCc1ccc(-c2ccc(Cl)cc2)c(C)c1C1=C(O)C2(CCOCC2)OC1=O [Example I-2-a-7] | 100 | 100 |  |  |  | 100 |  |
